Source: patent US11208379B2, “Compounds, compositions, methods for treating diseases, and methods for preparing compounds” (UNIVERSITY OF LOUISVILLE RESEARCH FOUNDATION, INC., priority 2017, dated 2021)

Tested on: A549 lung cancer cells
Assay: Cell death / cell survival by trypan blue exclusion
Type: cell-based, human
Details: A549, 1 μM, FIG. 36 top panel
Experimental: A549 (human lung adenocarcinoma) cells and MDA-MB-231 (human breast adenocarcinoma) cells were cultured in DMEM medium containing 10% FBS and 1% Penicillin/Streptomycin. IMR-90 (human non-malignant lung fibroblast) cells were cultured in EMEM medium containing 10% FBS and 1% Penicillin/Streptomycin. MCF10A (human non-malignant breast epithelial) cells in MEBM containing 10% FBS. Cell viability after treatment was determined using 3-(4,5-dimethylthiazol-2-yl)-2,5-diphenyltetrazolium bromide (MTT). After 72 h treatment with compound, a 5 mg/ml solution MTT of (Sigma, St. Louis, Mo.) was added in at 1/10 total sample volume. Cells were then incubated for 4 h. Lysis buffer (10% SDS in 0.01 N HCl) was added at half of the original sample volume and incubated overnight. Plates were read at 570 nm. Graphs indicate average of one or two experiments (performed in quadruplet wells)±SEM. Cell death in A549 cells was assessed by trypan blue exclusion. […] ROS production in A549 lung cancer cells after 48 h treatment with the compounds was assayed using ROS-Glo™ H2O2 Assay Kit (Promega).
A549 (human lung adenocarcinoma) cells and MDA-MB-231 (human breast adenocarcinoma) cells were cultured in DMEM medium containing 10% FBS and 1% Penicillin/Streptomycin. IMR-90 (human non-malignant lung fibroblast) cells were cultured in EMEM medium containing 10% FBS and 1% Penicillin/Streptomycin. […]

## CCOC(=S)N/N=C(C)/C(C)=N/NC(=S)NC [I-4]
  cell viability (trypan blue exclusion): less effective
